Laboratory results from patent publication US20060194766A1, “Combinations comprising anti-epileptic drugs for the treatment of neurological disorders” (priority 2003, published 2006).

Tested on: MES-induced seizures
Experiment: Maximal electroshock test (MES)-induced seizures in mice
Assay type: in vivo
Conditions: for % animals protected from seizures: pre-treatment 1 h
Protocol: Generalized tonic-clonic seizures are induced in mice by a maximal electroshock test (MES). In brief, seizures of the hind extremities of male Tif: MAGf (SPF) mice (19-25 g) are induced by passing alternating electrical current (50 Hz, 18 mA, 0.2 s) through temporal electrodes. The compounds and carbamazepine are suspended in 0.5% methyl cellulose for p.o. administration (doses for the compounds: 3.125, 6.25, 12.5 and 20.0 mg/kg p.o). The pre-treatment period for all compounds is 1 h. Ten animals per dose are used. For each experiment one group serves as a negative control (placebo). The number of animals protected from tonic hind limb extension seizure is determined in each dose and combination group.

Structure (SMILES): NC(=O)N1c2ccccc2C=Cc2ccccc21 [Carbamazepine]
- % animals protected from seizures (Carbamazepine 7.5 mg/kg combined with Compound 1, 3.125 mg/kg p.o.): 40%
- % animals protected from seizures (Carbamazepine 7.5 mg/kg p.o. combined with placebo): 0%
- % animals protected from seizures (Carbamazepine 12.5 mg/kg combined with Compound 1, 3.125 mg/kg p.o.): 80%
- % animals protected from seizures (Carbamazepine 12.5 mg/kg combined with Compound 1, 6.25 mg/kg p.o.): 90%
- % animals protected from seizures (Carbamazepine 20.0 mg/kg combined with Compound 1, 6.25 mg/kg p.o.): 100%
- % animals protected from seizures (Carbamazepine 20.0 mg/kg p.o. combined with placebo): 80%
- % of the mice protected (carbamazepine combined with placebo, doses of 7.5 to 20.0 mg/kg p.o.): up to 80%
